Entries after “also recorded” stand apart in the source; their conditions may differ. Where two headings read alike, the source gives them in different places. Marks after values point to notes of the source that are not given here.
Assays:
[1] = cited from earlier work
Description: We reasonably fitted the plots of concentrations versus time with one-compartment models for most serum samples (n = 837) collected during the trough period (156 samples were collected during the approach peak period).

[2] = Vancomycin serum concentrations (trough and approach peak) by HPLC; assay type: in vivo, human; conditions: n = 374 ICU patients
Description: Ctrough means trough concentration that of blood samples collected 0.5 h before the next dose; Cappro peak means approach peak concentration that of the blood samples collected 1 h after completion of drug infusion.

[3] = Population pharmacokinetic analysis of vancomycin (nonlinear mixed-effects modeling, Kinetica, one-compartment model)
Description: Data collected from patients’ medical records included age, total body weight, Sex, creatinine level, drug combination, and burn and continuous renal replacement therapy status (Burn-S, CRRT-S).
A total of 837 trough concentration (Ctrough) blood samples were collected 0.5 h before the next dose (after CRRT treatment for CRRT treatment patients), and 156 samples were collected at approach peak concentration (1 h after the peak concentration), both at the steady state (after the 6th dose) for most patients. All the samples (3–5 ml) were placed in 10 ml tubes containing coagulant and then centrifuged at 3000 rpm for 5 min. The supernatant serum was stored at − 80 °C for further testing.
The multilevel calibration was 0.4–100.0 μg/ml with calibration line slope consistently > 0.999. The RSD of intra-day and inter-day assays were less than 7%, and the recovery rate was 95.5–103.2%. Serum creatinine was detected by the creatine oxidase method with a biochemistry analyzer (Beckmann CX5).
As most of the trough concentrations of vancomycin was collected from sparse data at steady state, we fit the data with a one-compartment model to retrieve the pharmacokinetic parameters (CL and V).The covariate models and interindividual variability were expressed as following equation: βi=Ziβ+ηj, where βj denote as the parameter for the jth subject; Zj is amatrix depending on the covariates Zj. When no covariates are included, β is the (p*1) vector of the mean parameters; ηj is the interindividual variability that is assumed normal distribution with mean 0 and covariance matrix C (p*p).

[4] = Christine, 102 patients, unstable renal function
[5] = used as initial estimate, Chinese adult patients, ref Ji et al. [6]
[6] = values reported by other studies in non-ICU patients
[7] = basic model (no covariates), Chinese ICU adult patients, population mean (RSE%)

In the case of `CN[C@H](CC(C)C)C(=O)N[C@H]1C(=O)N[C@@H](CC(N)=O)C(=O)N[C@H]2C(=O)N[C@H]3C(=O)N[C@H](C(=O)N[C@H](C(=O)O)c4cc(O)cc(O)c4-c4cc3ccc4O)[C@H](O)c3ccc(c(Cl)c3)Oc3cc2cc(c3O[C@@H]2O[C@H](CO)[C@@H](O)[C@H](O)[C@H]2O[C@H]2C[C@](C)(N)[C@H](O)[C@H](C)O2)Oc2ccc(cc2Cl)[C@H]1O` [vancomycin], the “Final model of CL” value [1, 4] is listed as “CL(L·h^−1) = 2.97*(1 + 0.0205*(CLCr − CLCrMedian))”, the V [1, 4] is listed as 1.24 L/kg and the V ([1]; ICU patients with Cr > 88.4 μmol/l) is listed as 148.19 L. The V ([1]; ICU patients with Cr value below 88.4 μmol/l) was 59.86 L, the “Final model of CL” value ([1]; Llopis, 30 ICU patients) was “CL(L·h^−1) = 0.034*CLCr(ml·min^−1) + 0.015* TBW” and the “Final model of Vc (central compartment volume)” value ([1]; Llopis, 30 ICU patients) was “Vc (L) = 0.414* TBW”. The “Final model of Vp (peripheral compartment volume)” value ([1]; Llopis, 30 ICU patients) was “Vp (L) = 1.32*TBW”, the “Final model of CL” value ([1]; Natalia, 191 ICU patients) was “CL(ml·min^−1·kg^−1) = 0.67*CLCr (ml·min^−1 ·kg^−1) + AGE^−0.24” and the “Final model of V” value ([1]; Natalia, 191 ICU patients) was “V (L·kg^−1) = 0.82*2.49^A, A = 0 or 1 if Cr ≤ 88.4 or Cr > 88.4 μmol/L”. The “Final model of CL” value ([1]; Yasuhara, 190 adult Japanese, if CLCr < 85) was “CL(L·h^−1) = 0.0487*CLCr(ml·min^−1),”, the CL ([1]; Yasuhara, 190 adult Japanese, if CLCr > 85) was 3.51 L/h and the “initial pharmacokinetic parameter CL” value [1, 5] was 2.83 L/h. For the same compound, the “initial pharmacokinetic parameter V” value [1, 5] was 52.14 L, the CL [1, 6] was 2.89 to 5.93 L/h and the V [1, 6] was 31.24 to 91.76 L. The “Ctrough (trough concentration)” value ([2]; blood samples collected 0.5 h before the next dose, steady state (after the 6th dose), regimens 0.5 g qd to 1 g q12h) was 16.3 ± 12.4, the “Cappro peak (approach peak concentration)” value ([2]; blood samples collected 1 h after completion of drug infusion, steady state) was 36.0 ± 19.4 and the “CL (RSE%)” value [3, 7] was 2.63 (25.72) L/h. For the same compound, the “V (RSE%)” value [3, 7] was 55.32 (27.31) L, the “Final covariate equation of V” value ([3]; final model, Cr μmol/L, Age y, TBW kg) was “V = 46.47 − 0.04*Cr − 0.07*Age + 0.16* TBW” and the “Final covariate equation of CL” value ([3]; final model, DA dopamine (1 not used, 2 used), Cr μmol/L, Burn-S (1 burn > 50%, 2 < 50%), TBW kg, CRRT-S (1 CRRT, 2 not)) was “CL = 0.78 + 0.036*DA − 0.007*Cr − 0.43*Burn-S + 0.067*TBW + 0.41*CRRT-S; also recorded: CL =0.78 + 0.036*DA − 0.007*Cr -0.43* Burn-S + 0.067*TBW + 0.41* CRRT-S”. The “CL (RSE%)” value ([3]; final population model, Chinese ICU adult patients, one-compartment, EM algorithm, Kinetica 4.4.1, 294 patients for model building, serum HPLC, population mean) was 3.16 (56.01) L/h.

From publication PMC7846798, “Population pharmacokinetic modeling and clinical application of vancomycin in Chinese patients hospitalized in intensive care units” (Scientific Reports, 2021)
